Measured values reported in article PMC4457528, “Identification of Novel Small Molecule Inhibitors of Oncogenic RET Kinase” (PLoS ONE, 2015).

Legend:
Assay in all cases: KinomeScan kinase panel, single concentration 10 µM
Format in all cases: binding
[1] = target: T1, KinomeScan kinase panel (Homo sapiens, UniProt Q9H093); conditions: 10 µM
T1 construct: purchased DiscoveRx (KinomeScan)
T1 sequence (Q9H093 1-628): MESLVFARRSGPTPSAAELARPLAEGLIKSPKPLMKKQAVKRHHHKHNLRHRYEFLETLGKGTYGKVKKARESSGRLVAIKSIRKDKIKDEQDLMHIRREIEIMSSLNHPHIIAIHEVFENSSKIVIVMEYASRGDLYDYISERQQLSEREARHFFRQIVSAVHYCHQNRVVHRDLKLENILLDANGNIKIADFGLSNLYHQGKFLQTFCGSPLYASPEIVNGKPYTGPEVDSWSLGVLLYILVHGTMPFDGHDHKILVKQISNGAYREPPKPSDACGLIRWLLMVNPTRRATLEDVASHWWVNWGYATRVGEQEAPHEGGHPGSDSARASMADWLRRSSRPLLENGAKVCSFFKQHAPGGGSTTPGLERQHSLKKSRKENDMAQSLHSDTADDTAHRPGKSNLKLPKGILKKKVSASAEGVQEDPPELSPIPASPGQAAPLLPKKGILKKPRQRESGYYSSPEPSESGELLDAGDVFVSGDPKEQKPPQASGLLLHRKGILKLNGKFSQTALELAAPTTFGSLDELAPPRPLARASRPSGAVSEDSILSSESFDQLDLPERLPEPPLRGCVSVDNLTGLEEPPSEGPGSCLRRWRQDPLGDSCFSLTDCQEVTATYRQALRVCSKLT

[2] = target: T2, KinomeScan kinase panel (Homo sapiens, UniProt O14920); conditions: IKK-beta, 10 µM; read-out: score (%)
T2 construct: purchased DiscoveRx (KinomeScan)
T2 sequence (O14920 1-756): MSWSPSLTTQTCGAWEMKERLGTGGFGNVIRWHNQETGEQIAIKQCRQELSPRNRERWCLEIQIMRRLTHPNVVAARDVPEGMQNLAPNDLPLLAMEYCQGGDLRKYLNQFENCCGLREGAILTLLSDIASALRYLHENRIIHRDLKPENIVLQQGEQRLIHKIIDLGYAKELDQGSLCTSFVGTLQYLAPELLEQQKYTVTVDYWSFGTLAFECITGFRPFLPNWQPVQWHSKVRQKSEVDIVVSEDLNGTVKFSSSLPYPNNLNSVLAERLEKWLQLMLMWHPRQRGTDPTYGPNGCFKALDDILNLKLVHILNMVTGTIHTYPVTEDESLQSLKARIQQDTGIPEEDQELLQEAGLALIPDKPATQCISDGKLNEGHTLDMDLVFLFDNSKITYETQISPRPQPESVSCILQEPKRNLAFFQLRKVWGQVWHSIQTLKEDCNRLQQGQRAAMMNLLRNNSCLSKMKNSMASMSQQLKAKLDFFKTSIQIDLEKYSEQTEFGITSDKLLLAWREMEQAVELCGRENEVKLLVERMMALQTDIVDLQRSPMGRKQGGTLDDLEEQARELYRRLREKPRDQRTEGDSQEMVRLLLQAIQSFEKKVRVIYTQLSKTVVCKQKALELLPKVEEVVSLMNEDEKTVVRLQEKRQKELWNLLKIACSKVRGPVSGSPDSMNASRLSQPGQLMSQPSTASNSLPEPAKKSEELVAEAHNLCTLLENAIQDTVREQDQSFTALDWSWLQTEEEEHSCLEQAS

[3] = target: T3, KinomeScan kinase panel (Homo sapiens, UniProt Q9Y616); conditions: IRAK3, 10 µM; read-out: score (%)
T3 construct: purchased DiscoveRx (KinomeScan)
T3 sequence (Q9Y616 1-596): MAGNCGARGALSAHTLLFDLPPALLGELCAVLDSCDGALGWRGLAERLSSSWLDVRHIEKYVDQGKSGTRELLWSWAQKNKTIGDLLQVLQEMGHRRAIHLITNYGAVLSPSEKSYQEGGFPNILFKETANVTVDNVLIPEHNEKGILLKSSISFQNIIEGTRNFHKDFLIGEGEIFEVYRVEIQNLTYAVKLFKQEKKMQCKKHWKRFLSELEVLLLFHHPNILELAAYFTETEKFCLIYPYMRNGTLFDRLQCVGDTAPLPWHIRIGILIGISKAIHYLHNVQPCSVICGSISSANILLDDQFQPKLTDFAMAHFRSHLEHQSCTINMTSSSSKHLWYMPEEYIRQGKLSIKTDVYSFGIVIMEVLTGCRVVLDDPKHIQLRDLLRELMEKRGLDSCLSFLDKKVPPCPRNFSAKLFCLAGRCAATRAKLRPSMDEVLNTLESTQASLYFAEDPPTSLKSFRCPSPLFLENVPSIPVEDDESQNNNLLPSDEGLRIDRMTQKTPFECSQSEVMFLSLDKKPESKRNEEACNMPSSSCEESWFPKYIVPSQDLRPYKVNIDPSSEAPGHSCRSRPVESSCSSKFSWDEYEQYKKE

[4] = target: T4, KinomeScan kinase panel (Homo sapiens, UniProt P10721, V559D); conditions: KIT(V559D), 10 µM; read-out: score (%)
T4 construct: purchased DiscoveRx (KinomeScan)

[5] = target: T5, KinomeScan kinase panel (Homo sapiens, UniProt Q06418); conditions: kinase TYRO3; 10 µM; read-out: score (%)
T5 construct: purchased DiscoveRx (KinomeScan)
T5 sequence (Q06418 41-890): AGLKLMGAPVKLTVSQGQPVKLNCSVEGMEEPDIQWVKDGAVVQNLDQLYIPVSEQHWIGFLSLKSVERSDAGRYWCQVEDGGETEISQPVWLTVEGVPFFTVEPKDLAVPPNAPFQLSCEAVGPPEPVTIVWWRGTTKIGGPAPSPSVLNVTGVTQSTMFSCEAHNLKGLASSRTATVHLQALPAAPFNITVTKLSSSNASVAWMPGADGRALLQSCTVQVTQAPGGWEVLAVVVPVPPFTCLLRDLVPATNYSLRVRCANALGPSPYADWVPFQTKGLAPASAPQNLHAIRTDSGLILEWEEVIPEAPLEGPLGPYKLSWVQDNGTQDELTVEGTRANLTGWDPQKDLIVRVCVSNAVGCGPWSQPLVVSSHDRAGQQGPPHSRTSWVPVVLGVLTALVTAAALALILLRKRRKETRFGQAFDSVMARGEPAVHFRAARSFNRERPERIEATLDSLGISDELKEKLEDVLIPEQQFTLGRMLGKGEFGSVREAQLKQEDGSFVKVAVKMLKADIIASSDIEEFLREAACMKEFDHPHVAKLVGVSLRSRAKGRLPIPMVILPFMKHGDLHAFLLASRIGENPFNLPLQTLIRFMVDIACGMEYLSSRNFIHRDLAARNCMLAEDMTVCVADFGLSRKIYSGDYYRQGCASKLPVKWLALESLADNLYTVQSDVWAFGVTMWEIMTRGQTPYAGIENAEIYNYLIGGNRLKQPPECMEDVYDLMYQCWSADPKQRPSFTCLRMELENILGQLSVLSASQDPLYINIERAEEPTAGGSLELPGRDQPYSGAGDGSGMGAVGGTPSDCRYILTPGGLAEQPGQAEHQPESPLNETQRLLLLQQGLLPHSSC

T4 sequence (P10721 26-976 V559D): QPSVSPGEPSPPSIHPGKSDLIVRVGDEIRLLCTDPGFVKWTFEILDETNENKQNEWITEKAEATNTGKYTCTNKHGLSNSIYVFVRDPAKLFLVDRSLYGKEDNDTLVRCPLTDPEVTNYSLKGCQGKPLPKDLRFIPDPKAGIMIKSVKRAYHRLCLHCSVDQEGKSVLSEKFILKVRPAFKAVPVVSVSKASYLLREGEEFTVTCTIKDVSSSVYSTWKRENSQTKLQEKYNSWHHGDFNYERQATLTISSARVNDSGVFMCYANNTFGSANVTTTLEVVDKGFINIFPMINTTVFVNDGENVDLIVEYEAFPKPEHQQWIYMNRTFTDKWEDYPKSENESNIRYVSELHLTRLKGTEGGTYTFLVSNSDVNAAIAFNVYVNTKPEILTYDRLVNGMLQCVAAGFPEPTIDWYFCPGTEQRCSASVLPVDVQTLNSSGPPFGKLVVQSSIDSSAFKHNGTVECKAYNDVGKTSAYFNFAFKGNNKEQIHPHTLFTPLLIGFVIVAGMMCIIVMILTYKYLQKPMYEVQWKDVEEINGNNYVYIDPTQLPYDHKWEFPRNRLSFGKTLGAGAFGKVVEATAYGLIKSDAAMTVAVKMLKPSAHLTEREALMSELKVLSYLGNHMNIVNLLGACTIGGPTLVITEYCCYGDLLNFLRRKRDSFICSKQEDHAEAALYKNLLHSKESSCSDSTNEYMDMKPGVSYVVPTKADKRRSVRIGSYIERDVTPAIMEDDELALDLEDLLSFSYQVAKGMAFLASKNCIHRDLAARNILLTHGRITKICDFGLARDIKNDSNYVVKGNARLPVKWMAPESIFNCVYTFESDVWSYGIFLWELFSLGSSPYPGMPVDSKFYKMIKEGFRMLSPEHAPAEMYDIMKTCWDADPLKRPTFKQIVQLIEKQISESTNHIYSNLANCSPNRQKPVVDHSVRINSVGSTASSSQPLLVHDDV

Row | SMILES | score (%) ([1]; kinase SNARK) | remaining binding at 10 µM [2] [%] | remaining binding at 10 µM [3] [%] | remaining binding at 10 µM [4] [%] | remaining binding at 10 µM [5] [%] | score (%) ([1]; SNARK)
1 | CCN1CCN(Cc2ccc(NC(=O)c3ccc(C)c(NC(=O)c4cncc(-c5cccs5)c4)c3)cc2C(F)(F)F)CC1 [ALW-II-41-27] | nb (Hits values higher than 30% were considered negative (no binding: nb)) | 1.2 | > 30 | 0.1 | > 30 | –
2 | CCN1CCN(Cc2ccc(NC(=O)c3ccc(C)c(C#Cc4cccnc4)c3)cc2C(F)(F)F)CC1 [XMD15-44] | 99% | 0 | > 30 | 0 | 100 | –
3 | CCN1CCN(Cc2ccc(NC(=O)c3ccc(C)c(/C=C/c4cnc5[nH]ccc5c4Cl)c3)cc2C(F)(F)F)CC1 [HG-6-63-01, (E)-3-(2-(4-chloro-1H-pyrrolo[2,3-b]pyridin-5-yl)vinyl)-N-(4-((4-ethylpiperazin-1-yl)methyl)-3-(trifluoromethyl)phenyl)-4-methylbenzamide] | – | 5.9 | > 30 | 0 | > 30 | nb (Hits values higher than 30% were considered negative (no binding: nb))
